Data on 16 compounds can be found in BindingDB's records for doi:10.1016/j.bmc.2007.01.010 (Abbott Laboratories, 2007).

In general, IC50 refers to the concentration that inhibits the measured activity by half. Low values mean inhibition by little substance, high ones a need for much substance.

The target in this assay is T1, RAC-alpha serine/threonine-protein kinase [139-480,S378A,S381A,T450D,S473D] (Homo sapiens, UniProt P31749, S378A/S381A/S473D/T450D).
T1 construct: 139-480
T1 sequence (P31749 139-480 S378A/S381A/T450D/S473D): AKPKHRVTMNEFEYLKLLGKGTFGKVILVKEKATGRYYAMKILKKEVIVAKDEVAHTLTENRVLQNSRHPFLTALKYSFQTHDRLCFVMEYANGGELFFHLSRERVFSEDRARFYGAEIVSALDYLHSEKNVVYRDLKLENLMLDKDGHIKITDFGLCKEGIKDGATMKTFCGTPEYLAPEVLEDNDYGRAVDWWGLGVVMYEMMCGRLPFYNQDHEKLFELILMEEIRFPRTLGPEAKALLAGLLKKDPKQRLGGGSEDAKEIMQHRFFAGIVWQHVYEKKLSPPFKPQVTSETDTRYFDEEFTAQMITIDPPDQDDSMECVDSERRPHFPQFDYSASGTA
Briefly: Akt Kinase Assay. Particulars: pH 7.5; 22 °C. As for the experimental part: The kinase assay uses His-Akt1 and a biotinylated peptide as substrate. The biotinylated peptides were immobilized on streptavidin-coated FLASH plates. After reaction, the 33P-phosphopeptide captured on the FLASH plates was measured with a TopCount Packard Instruments […] (Packard Instruments, Boston, MA).
For `N[C@H](COc1cncc(-c2cc3cn[nH]c3cn2)c1)Cc1c[nH]c2ccccc12` [3-[(2S)-2-amino-3-[(5-{1H-pyrazolo[3,4-c]pyridin-5-yl}pyridin-3-yl)oxy]propyl]-1H-indole], the IC50 worked out at 0.6 nM.

Turning to `Cn1cccc1-c1n[nH]c2cnc(-c3cncc(OC[C@@H](N)Cc4ccccc4)c3)cc12` [3-[(2S)-2-amino-3-phenylpropoxy]-5-[3-(1-methyl-1H-pyrrol-2-yl)-1H-pyrazolo[3,4-c]pyridin-5-yl]pyridine], the IC50 is 228 nM.

Turning to `N[C@H](COc1cncc(-c2cc3c(-c4ccco4)n[nH]c3cn2)c1)Cc1ccccc1` [3-[(2S)-2-amino-3-phenylpropoxy]-5-[3-(furan-2-yl)-1H-pyrazolo[3,4-c]pyridin-5-yl]pyridine], the IC50 is 6.1 nM.

In turn, `N[C@H](COc1cncc(-c2cc3cn[nH]c3cn2)c1)Cc1ccccc1` [3-[(2S)-2-amino-3-phenylpropoxy]-5-{1H-pyrazolo[3,4-c]pyridin-5-yl}pyridine] returned an IC50 of 223 nM.

With `N[C@H](COc1cncc(-c2cc3c(Cl)n[nH]c3cn2)c1)Cc1ccccc1` [3-[(2S)-2-amino-3-phenylpropoxy]-5-{3-chloro-1H-pyrazolo[3,4-c]pyridin-5-yl}pyridine], the IC50 turned out to be 59 nM.

Turning to `C=Cc1n[nH]c2cnc(-c3cncc(OC[C@@H](N)Cc4ccccc4)c3)cc12` [3-[(2S)-2-amino-3-phenylpropoxy]-5-{3-ethenyl-1H-pyrazolo[3,4-c]pyridin-5-yl}pyridine], the concentration for half-maximal inhibition (IC50) was 13 nM.

In turn, `Cc1n[nH]c2cnc(-c3cncc(OC[C@@H](N)Cc4ccccc4)c3)cc12` [3-[(2S)-2-amino-3-phenylpropoxy]-5-{3-methyl-1H-pyrazolo[3,4-c]pyridin-5-yl}pyridine] registered an IC50 of 25 nM.

The compound `N[C@H](COc1cncc(-c2cc3c(-c4ccccc4)n[nH]c3cn2)c1)Cc1ccccc1` [3-[(2S)-2-amino-3-phenylpropoxy]-5-{3-phenyl-1H-pyrazolo[3,4-c]pyridin-5-yl}pyridine] displayed an IC50 of 8.3 nM.

`Nc1cc2[nH]ncc2cc1-c1cncc(OC[C@@H](N)Cc2c[nH]c3ccccc23)c1` [5-{5-[(2S)-2-amino-3-(1H-indol-3-yl)propoxy]pyridin-3-yl}-1H-indazol-6-amine] yielded an IC50 of 51 nM.

Compound `N[C@H](COc1cncc(-c2ccc3[nH]ncc3c2)c1)Cc1c[nH]c2ccccc12` [5-{5-[(2S)-2-amino-3-(1H-indol-3-yl)propoxy]pyridin-3-yl}-1H-indazole] returned an IC50 of 1.5 nM.

The compound `N[C@H](COc1cncc(-c2ccc3[nH]nc(C(F)(F)F)c3c2)c1)Cc1c[nH]c2ccccc12` [5-{5-[(2S)-2-amino-3-(1H-indol-3-yl)propoxy]pyridin-3-yl}-3-(trifluoromethyl)-1H-indazole] had an IC50 of 1.8 nM.

Regarding `Nc1cc2[nH]nc(Cl)c2cc1-c1cncc(OC[C@@H](N)Cc2c[nH]c3ccccc23)c1` [5-{5-[(2S)-2-amino-3-(1H-indol-3-yl)propoxy]pyridin-3-yl}-3-chloro-1H-indazol-6-amine], the IC50 turned out to be 7.1 nM.

Consider `N[C@H](COc1cncc(-c2ccc3[nH]nc(Cl)c3c2)c1)Cc1c[nH]c2ccccc12` [5-{5-[(2S)-2-amino-3-(1H-indol-3-yl)propoxy]pyridin-3-yl}-3-chloro-1H-indazole], for which the IC50 is 1 nM.

With `N[C@H](COc1cncc(-c2cc3cn[nH]c3cc2[N+](=O)[O-])c1)Cc1c[nH]c2ccccc12` [5-{5-[(2S)-2-amino-3-(1H-indol-3-yl)propoxy]pyridin-3-yl}-6-nitro-1H-indazole], the IC50 was 953 nM.

Consider `Cc1n[nH]c2c[n+]([O-])c(-c3cncc(OC[C@@H](N)Cc4ccccc4)c3)cc12` [5-{5-[(2S)-2-amino-3-phenylpropoxy]pyridin-3-yl}-3-methyl-6-oxido-1H-pyrazolo[3,4-c]pyridin-6-ium], for which the IC50 came out at 104 nM.

`Cc1n[nH]c2cnc(-c3cncc(OC[C@@H](N)Cc4c[nH]c5ccccc45)c3)cc12` [pyrazolopyridine analog, 9g] had an IC50 of 0.34 nM.
